The nature of data set [1]: Steady-state electronic absorption and fluorescence spectroscopy. It counts as physicochemical. Particulars: for λmax: UV-vis absorption in toluene; for E(S1): determined from the average energy of the absorption and emission maxima; for ε: extinction coefficient at λmax; for ε / λem: toluene; for λem: fluorescence emission maximum; for φF: fluorescence quantum yield. On the procedure:
Steady-state electronic absorption spectra were recorded on a Shimadzu 1601 UV/Vis spectrometer with a 2 mm quartz cuvette. Fluorescence measurements were performed using a PTI Quanta-Master 1 single photon counting spectrofluorimeter in a right angle configuration with a 1 cm quartz cuvette.
The intensity of the S0→>S1 transition increases with the size of the aromatic core, while the energy decreases. The fluorescence spectrum of each chromophore is shown in FIG. 4b and summarized in Table 4 along with that of compounds 1, 3, 5, 7, and 9. A similar trend with the emission maxima moving to longer wavelengths as the size of the aromatic core increases was observed. The electronic absorption and fluorescence properties of all the alkylated chromophores are very similar to those of the parent compounds. No observable trend is apparent for the slight shifts in λmax; however, with the exception of 2, all alkylated compounds have slightly lower extinction coefficients than their parent compounds. The fluorescence emission maxima of the alkylated compounds (Table 4) are similar to those of the parent compounds as reported in the literature. See Hydlovic et al., Phtochem. Photobiol. A., 112: 197-203 (1998); Licchelli et al., Chem. Eur. J., 8: 5161-5169 (2002); Weil et al., Chem. Eur. J., 8: 4742-4750 (2002); and Sadrai et al., J. Phys. Chem., 96: 7988-7996 (1992).

The next data set can be described thus: Solubility in toluene. It counts as physicochemical. Particulars: for solubility: organic solvent or mixture. The protocol: As used herein, a compound can be considered soluble in a solvent when at least 0.1 mg of the compound can be dissolved in 1 mL of the solvent. Examples of common organic solvents include petroleum ethers; acetonitrile; aromatic hydrocarbons such as benzene, toluene, xylene, and mesitylene; ketones such as acetone, and methyl ethyl ketone; ethers such as tetrahydrofuran, dioxane, bis(2-methoxyethyl)ether, diethyl ether, di-isopropyl ether, and t-butyl methyl ether; alcohols such as methanol, ethanol, butanol, and isopropyl alcohol; aliphatic hydrocarbons such as hexanes; esters such as methyl acetate, ethyl acetate, methyl formate, ethyl formate, isopropyl acetate, and butyl acetate; amides such as dimethylformamide and dimethylacetamide; sulfoxides such as dimethylsulfoxide; halogenated aliphatic and aromatic hydrocarbons such as dichloromethane, chloroform, ethylene chloride, chlorobenzene, dichlorobenzene, and trichlorobenzene; and cyclic solvents such as cyclopentanone, cyclohexanone, and 2-methypyrrolidone. In various embodiments, the present compounds can have good solubility in solvents that are aromatic hydrocarbons such as benzene, toluene, xylene, and mesitylene.
Table 2 below compares the solubilities of several compounds according to the present teachings with their unsubstituted counterparts in toluene.

Data set [2] can be described thus: Electrochemistry (redox potentials). The class given is physicochemical. Particulars: for E^−1/2: first reduction potential; for E^−1/2 / E^+1/2 / E^2−1/2: dichloromethane, 0.1 M TBAPF6; for E^−1/2 / E^+1/2: Fc/Fc+ (0.46 V vs. SCE) internal standard; for E^+1/2: oxidation potential; for Reduction potential more negative than that of parent compound: shift versus unsubstituted parent; for E^2−1/2: second reduction potential. The protocol:
Electrochemical measurements were performed using a CH Instruments Model 622 electrochemical workstation. Measurements for compounds 4, 6, 8, and 10 were performed in dichloromethane containing 0.1 M tetrabutylammonium hexafluorophosphate (TBAPF6) electrolyte. Measurements for 2 were performed in benzonitrile with the same electrolyte. A 1.0 mm diameter platinum disk electrode, platinum wire electrode, and […] reference electrode were employed. The ferrocene/ferrocenium redox couple (Fc/Fc^+, 0.46 V vs. SCE) (see Connelly et al., Chem. Rev., 96: 877-910 (1996)) was used as an internal standard. TBAPF6 was recrystallized twice from ethyl acetate prior to use.
Alkylation (e.g., substitution of the phenethyl groups) ortho to the imide nitrogen atoms appears to render the present compounds somewhat more difficult to reduce, but easier to oxidize (Table 3). The reduction potentials of the disubstituted compounds (2, 4, and 6) are approximately 130 mV more negative than those of their parent compounds. Correspondingly, the oxidation potential of the disubstituted 6 is 40 mV less positive than that of […]. Tetrasubstituted 8 and 10 have reduction potentials that are more negative by ˜200 mV than their unsubstituted analogs. These shifts in redox potentials reasonably arise from the electron-donating nature of the alkylating (e.g., phenethyl) groups. The oxidation and reduction potentials of all alkylated molecules shift in the same direction by nearly the same amount, such that the corresponding HOMO-LUMO energy gap remains the same, as is reflected in their electronic absorption and emission spectra described below.

The conditions of data set [3]: literature values (footnotes a Gosztola et al., c Lee et al.), cited from earlier work; for E^−1/2: first reduction potential; for E^2−1/2: second reduction potential.
For data set [4] the following is noted: cited from earlier work; for ε: extinction coefficient at λmax; for ε / λem: literature values (footnotes a, b); for λem: fluorescence emission maximum; for φF: fluorescence quantum yield, literature values (footnotes d-h); for λmax: literature values (footnotes a Gosztola et al., b Holtrup et al.).
The conditions of data set [5]: literature values (footnote a Hayes et al.); cited from earlier work.

In brackets after ≈: the same amount, converted by molar mass. Like-named read-outs stand apart in the source and are kept apart here.

`CCCCC(CC)CN1C(=O)c2c(CCc3ccccc3)cc3c4ccc5c6cc(CCc7ccccc7)c7c8c(c(CCc9ccccc9)cc(c9ccc(c%10cc(CCc%11ccccc%11)c(c2c3%10)C1=O)c4c59)c86)C(=O)N(CC(CC)CCCC)C7=O` (stereo not drawn) [Compound 10, N,N′-bis(2-ethylhexyl)-2,5,10,13-tetrakis(phenethyl)terrylene-3, 4:11,12-bis(dicarboximide)]: in data set [1], the λmax stood at 649 nm, the “E(S1)” value is reported as 1.90 eV, the ε was found to be 80000 M⁻¹ cm⁻¹ and the λem was 661^ nm. The compound further yielded a φF in data set [1] of 0.95. For the same compound, the solubility (as a rule, the dissolved amount per volume that the medium holds) in “Solubility in toluene” amounted to 3000 µg/mL (≈ 2600 µM). Moreover, in data set [2], the “E^−1/2” value is given as −0.83^, the E^+1/2 worked out at 1.1 V and the “Reduction potential more negative than that of parent compound” value was around 200 mV.

Turning to `CCCCCCCCN1C(=O)c2cc(CCc3ccccc3)c3c4c(c(CCc5ccccc5)cc(c24)C1=O)C(=O)N(CCCCCCCC)C3=O` [Compound 4, N,N′-bis(n-octyl)-2,7-bis(phenethyl)naphthalene-1,8:4,5-bis(dicarboximide)], in data set [1], the λmax worked out at 390 nm, the “E(S1)” value is 3.09 eV, the ε is 14000 M⁻¹ cm⁻¹ and the λem is given as 415^ nm. The φF in data set [1] is listed as 0.0005. Further, in data set [2], the “E^−1/2” value was −0.61^, the “E^2−1/2” value is given as −1.15^ and the “Reduction potential more negative than that of parent compound” value is reported as “approximately 130 mV”.

For the compound “N,N′-bis(n-octyl)-perylene-3, 4:9,10-bis(dicarboximide) [Compound 7]”, the “E(S1)” value in data set [1] is on record as 2.34 eV. The Solubility in toluene in “Solubility in toluene” (toluene) was below 1000 µg/mL. Besides, in data set [3], the “E^−1/2” value is −0.50^c and the “E^2−1/2” value was −0.73^c. In addition, the E^+1/2 in data set [2] was determined as 1.67 V. Moreover, in data set [4], the ε is 80000 M⁻¹ cm⁻¹, the λem is given as 535^a nm, the φF is 0.99^g and the λmax was 526 nm.

As to `CCCCC(CC)CN1C(=O)c2ccc3c4cccc5cccc(c6ccc(c2c36)C1=O)c54` (stereo not drawn) [Compound 5, N-(2′-ethylhexyl)-perylene-3,4-dicarboximide], the “E(S1)” value in data set [1] worked out at 2.38 eV. Further, in “Solubility in toluene”, the solubility worked out at 2000 µg/mL (≈ 4610 µM). Besides, in data set [3], the “E^−1/2” value was −1.00^c and the “E^2−1/2” value is given as −1.49^c. In data set [2], this compound showed an E^+1/2 of 1.41 V. The τD in data set [5] was 3500 ± 100^a ps. In addition, in data set [4], the ε is 29970 M⁻¹ cm⁻¹, the λem is given as 539^a nm, the φF was 0.98^f and the λmax is given as 505 nm.

Take “N,N′-bis(2-ethylhexyl)-terrylene-3,4:11,12-bis(dicarboximide) [Compound 9]”: the “E(S1)” value in data set [1] was 1.88 eV. This compound displayed a Solubility in toluene in the data set “Solubility in toluene” below 1000 µg/mL. Further, in data set [3], the “E^−1/2” value was −0.63^c. This compound also yielded an E^+1/2 in data set [2] of 1.12 V. In data set [4], the ε is 93000 M⁻¹ cm⁻¹, the λem was 673^b nm, the φF was 0.95^h and the λmax is 650 nm.

`CCCCCCCCN1C(=O)c2ccc3c4c(ccc(c24)C1=O)C(=O)N(CCCCCCCC)C3=O` [Compound 3, N,N′-bis(n-octyl)-naphthalene-1,8:4,5-bis(dicarboximide)]: the “E(S1)” value in data set [1] was found to be 3.15 eV. In data set [3], the “E^−1/2” value was −0.48^a and the “E^2−1/2” value is recorded as −0.99^a. For the same compound, the τD in data set [5] is given as <20^a ps. Further, in data set [4], the ε was 14500 M⁻¹ cm⁻¹, the λem is on record as 407^a nm, the φF is 0.0018^e and the λmax was 382 nm.

`CCCCCCCCN1C(=O)c2cccc3cccc(c23)C1=O` [Compound 1, N-(n-octyl)-naphthalene-1,8-dicarboximide]: in data set [1], the “E(S1)” value came out at 3.38 eV. Moreover, the “E^−1/2” value in data set [3] is recorded as −1.40^a. Moreover, the τD in data set [5] is on record as <50^a ps. Besides, in data set [4], the ε is 10647 M⁻¹ cm⁻¹, the λem is given as 386^a nm, the φF is 0.25^d and the λmax is on record as 350 nm.

On to `CCCCCCCCN1C(=O)c2c(CCc3ccccc3)cc3c4cc(CCc5ccccc5)c5c6c(c(CCc7ccccc7)cc(c7cc(CCc8ccccc8)c(c2c37)C1=O)c64)C(=O)N(CCCCCCCC)C5=O` [Compound 8, N,N′-bis(n-octyl)-2,5,8,11-tetrakis(phenethyl)perylene-3, 4:9,10-bis(dicarboximide)], for which, in data set [1], the λmax is 525 nm, the “E(S1)” value was found to be 2.35 eV, the ε was determined as 58000 M⁻¹ cm⁻¹ and the λem was 533^ nm. Besides, the φF in data set [1] worked out at 0.99. In “Solubility in toluene”, the solubility turned out to be 2000 µg/mL (≈ 1940 µM). Also, in data set [2], the “E^−1/2” value is −0.75^, the E^+1/2 stood at 1.63 V, the “E^2−1/2” value was −0.93^ and the “Reduction potential more negative than that of parent compound” value was around 200 mV.
